Data set [1] relates to CQ-resistant (Dd2) strain of P. falciparum. As to conditions: value reported from another study; cited from earlier work.
Data set [2] deals with late stage (IV-V) gametocytes of 3D7 expressing luciferase parasite. In words: In vitro gametocytocidal activity, late stage. The format is cell-based, Plasmodium falciparum. As to conditions: Plasmodium falciparum, 3D7. From the text:
(§1) Late stage (IV-V) gametocytes are more refractory to antimalarial drugs than early-stage gametocytes and blood stage parasites, and thus fewer compounds are effective against late stage Pf gametocytes. […] FIGS. 4A and 4B are an examples according to various embodiments illustrating results showing the activity of compound 24 on gametocyte stages, based on an evaluation of the viability of gametocytes after the exposure of compound 24 on early (A) and late (B) gametocytes stages of 3D7 expressing luciferase parasite. In FIGS. 4A and 4B, EC50 data represent the means and SEMs of three experiments. Therefore, arylvinylquinolines represented good leads as new antimalarials with promising dual stage (blood and gametocyte) activity.

Data set [3] deals with P. falciparum 3D7 strain (CQ-sensitive). In words: In vitro antiplasmodium activity, 3D7 strain. The format is cell-based, Plasmodium falciparum. The settings on record: Plasmodium falciparum, 3D7; Table 6A, nM; footnote calls it IC50; read-out: Antiplasmodium activity 3D7 (converted). Here is the method:
A set of 104 new styrylquinoline derivatives were synthesized and investigated for in vitro their antimalarial activity. To test antimalarial activities, different dilutions of compounds were added to P. falciparum culture. Following 72 h incubation at 37° C. in an atmosphere containing 5% CO2, the inhibitory property of the compounds were determined by SYBR Green I fluorescence assay. Meanwhile, SARs studies were conducted.

For a further data set, the system named is HepG2. Nature of the data set: Cytotoxicity assay using MTS in human hepatocytes. The format is cell-based. As to conditions: HepG2 versus Dd2.
The nature of data set [4]: Cytotoxicity assay using MTS in human hepatocytes. The format is cell-based. The settings on record: human, HepG2 cells (human hepatocytes); Table 6B, unit inferred; footnote IC50 (HepG2); read-out: Cytotoxic activity HepG2 (converted).
Data set [5] has as its system P. berghei ANKA strain expressing luciferase. In words: Rodent malaria model, Peters' four-day test with IVIS luminescence. The format is in vivo. The settings on record: once daily, po. Here is the method:
Phosphate salts of 24, 29 and 88 were assessed (referred to hereinafter as 24 s, 29 s, and 88 s) in female Swiss Webster mice infected with P. berghei ANKA strain since this strain produced histopathological and immunopathological features which were particularly similar to human cerebral malaria. […] FIG. 6B is an example according to various embodiments illustrating a chart showing the luminescence detected and quantified 7 days after infection of the Swiss Webster females shown in FIG. 6A, using an in vivo imaging system (IVIS). […] As observed from FIG. 6A-B, all these compounds completely cured malaria infection in mice when exposed to 100 mg/kg daily by p.o. administration in a standard Peters' four-day test, and no parasites visible in any of the tested mice were observed. […] Actually, this signal can also arise from dying parasites.

Data set [6] concerns tightly synchronized Dd2 parasites. In words: Developmental stage specific action (Giemsa microscopy and flow cytometry). It is filed as cell-based, Plasmodium falciparum. The settings on record: 5×EC50, treated at 6, 18, 30 and 42 h post-invasion. Here is the method:
Accurate definition of the timing of action of antimalarial agents could give valuable insights into the developmental growth and clinical clearance of the parasite. To further understand the antimalarial activity of arylvinylquinolines, the developmental stage specific action of the most promising compound 24 was determined by both microscopy and flow cytometry analysis. Tightly synchronized cultures were exposed to 5×EC50 concentration of compound 24 at 6, 18, 30 and 42 hours post-invasion (HPI) of the merozoites. Microscopic analysis of Giemsa-stained-thin smears and flow cytometric evaluation were performed at 12 h intervals.
In FIGS. 2A and 2B, the results are representative of three independent biological replicates.

Data set [7] in a line: In vitro microsomal turnover assay (metabolic stability). As to conditions: mouse. Here is the method: Selectivity of compounds were determined by cytoxicity assay using MTS [(3-(4,5-dimethylthiazol-2-yl)-5-(3-carboxymethoxyphenyl)-2-(4-sulfophenyl)-2H-tetrazolium) in human hepatocytes. The metabolic stability of compounds was determined in mouse liver microsomes using an NADPH-regenerating system. The aqueous solubility at pH 7.4 was determined by UV-visible absorption based method. The permeability was assessed by the in vitro double-sink parallel artificial membrane permeability assay 52 that is a model for the passive transport from the gastrointestinal tract into the blood stream.
To assess the metabolic stability, the selected compounds were subjected to an in vitro microsomal turnover assay with mouse liver microsomal preparations. This assay determines the percentage of the parent compound residues after 60 min incubation (Table 7).

The test system of data set [8] is early stage (I-III) gametocytes of 3D7 expressing luciferase parasite. In words: In vitro gametocytocidal activity, early stage. The format is cell-based, Plasmodium falciparum. The settings on record: Plasmodium falciparum.
From the text: as §1

The test system of data set [9] is P. berghei ANKA strain expressing luciferase. In words: Survival of P. berghei ANKA infected mice (30 days). Here is the method: In light of in vitro metabolic stability and in vivo efficacy mentioned above, compound 24 s was also administered at 100 and 25 mg/kg to malaria infected mice, and the survival rate was evaluated for 30 days. […] BALB/c females were infected with P. berghei ANKA strain expressing luciferase and treated 4 h post-infection with 25 and 100 mg/kg orally once daily for 4 days.

Data set [10] relates to asynchronous Dd2 parasite cultures. In words: Kill kinetic experiments (rate of killing, parasitocidal/parasitostatic). It is filed as cell-based, Plasmodium falciparum. As to conditions: 5×EC50 (Atovaquone 6.6 nM) for 6, 12, 24 and 48 h. Here is the method: To study whether arylvinylquinolines exerted their antiplasmodial activity through a parasitocidal or parasitostatic mechanism, kill kinetic experiments in Dd2 strain were performed. […] After washing to remove the inhibitors at these time points, the growth of the cultures was continued to be assessed for 96 h.
FIGS. 3A, 3B, 3C, and 3D are examples according to various embodiments illustrating rate of killing and parasitocidal/parasitostatic activity determination of arylvinylquinolines. […] After each exposure, cultures were washed three times in RPMI, resuspended in culture media, and monitored for parasite growth daily for 4 days. DHA and Atovaquone (50 nM and 6.6 nM) were included as fast and slow acting controls, respectively. Parasitemia was determined by microscopy of Giemsa stained smear.

Data set [11] concerns CQ-resistant (Dd2) strain of P. falciparum. Nature of the data set: In vitro antiplasmodial activity, SYBR Green I fluorescence assay, Dd2 strain. The format is cell-based, Plasmodium falciparum.
Data set [12] deals with β-hematin crystal formation. Nature of the data set: β-hematin inhibition experiment. As to conditions: 100 μM hemin, 16 h at 37° C., up to 200 μM compound. It is filed as biochemical. Here is the method:
CQ and other aminoquinolines are known to fight against the malaria parasites by blocking hematin biocrystallization (hemozoin formation) through π-π stacking between the aminoquinoline scaffold and the heme. As a result, the accumulated toxic heme causes the parasite death by introducing oxidative membrane damage. β-hematin inhibition experiments were performed to determine possible mode of actions of arylvinylquinolines. FIG. 5A is an example according to various embodiments illustrating images of β-hematin crystals after incubation of 100 μM hemin, propionate buffer, phosphatidylcholine and, several concentrations of compound for 16 h at 37° C. […] In FIGS. 5A and 5B, the data are mean±SEM.

“Also recorded” adds a separate entry of the source. Like-named read-outs stand apart in the source and are kept apart here.

`C[C@@H]1CC[C@H]2[C@@H](C)C(=O)O[C@@H]3O[C@@]4(C)CC[C@@H]1[C@]32OO4` [Artemisinin]: the EC50 in [1] was 28 ± 6 nM.

Take `CN(C)CCNc1cc(/C=C/c2ccc(C(F)(F)F)cc2)nc2ccc(Cl)cc12` [Compound 24]: the IC50 was 394 ± 99.4 nM in data set [2] (late stage gametocytes, means and SEMs of three experiments); 11200 ± 1860 nM in data set [4]; 472 ± 18.4 nM in [8] (3D7, read-out: Early stage IC50 (nM)); no more than 15 nM in [11] (Plasmodium falciparum, Dd2 strain). In addition, the EC50 in data set [2] (read-out: Pf Gametocyte EC50 (late stage)) is 394 ± 99.4 nM; in data set [3], 16.8 ± 0.8 nM; in [8] (3D7, read-out: Pf Gametocyte EC50 (early stage)), 472 ± 18.4 nM; in [11] (Plasmodium falciparum, DD2, Table 6A, unit not given (text gives nM), footnote calls it IC50, read-out: Antiplasmodium activity Dd2 (converted)) it was 10.9 ± 1.9 nM; in [11] (Plasmodium falciparum, CQ-resistant (Dd2) strain, 72 h incubation, read-out: EC50 (nmol)), 10.9 ± 1.9 nM; in data set [11] (Plasmodium falciparum, Dd2 strain, read-out: EC50) it was no more than 15 nM. In the data set on HepG2, the “SI, selectivity index = [IC50 (HepG2)/IC50 (Dd2)]” value came out at 1031. The “in vivo efficacy (efficacious dose)” value in data set [5] is recorded as 25 mg/kg. The “stage-specific inhibition of P. falciparum growth” value in data set [6] is listed as “blocked at the trophozoite stage”. In addition, in data set [7], the “Projected t1/2” value was found to be 1.737 h. For the same molecule, the “Clint” value in data set [7] (microsomes) was determined as 13.3 µL/min/mg. In addition, the “% remaining after 60 min” value in [7] (microsomes, 1 h) is on record as 67.1%. Also, the “mice with 100% reduction of parasitemia” value in [9] (25 mg/kg, po) was 3/4; in data set [9] (100 mg/kg, p.o.), 5/5. Besides, the “tolerability / signs of toxicity” value in [9] (infected mice, 25 and 100 mg/kg p.o.) was “without apparent signs of toxicity”. Moreover, in data set [10], the “rate of killing (parasitemia after exposure and wash-out)” value was “remarkable reduction in parasitemias”. For the same molecule, the “RI, resistance index = [IC50 (Dd2)/IC50 (3D7)]” value in [11] (Dd2 versus 3D7) amounted to 0.6. In addition, the “inhibitory activity towards β-hematin formation” value in data set [12] is given as “weaker inhibitory activity; also recorded: very low activity”.

The record behind these values is patent US12479803B2, “Antimalarial compounds” (UNIVERSITY OF CENTRAL FLORIDA RESEARCH FOUNDATION, INC., priority 2019, dated 2025).
